Read-outs that look alike come from different tables or passages of the source.

Data set [1] deals with IL-10-induced JAK1/TYK2 signal pathway. As to the kind of experiment: IL-10-induced JAK1/TYK2 signal pathway STAT3-Luc reporter gene assay in U2OS cells. It counts as cell-based, human. The conditions noted are these: U2OS cells, STAT3-Luc reporter, IL-10 10 ng/mL, read-out: Half inhibition dose (IC50) on IL-10-induced JAK1/TYK2 signal pathway. In outline:
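Luciferase read-out (560 nm) corrected by GFP signal (Ex485/Em520) gives IL-10 pathway activity, and IC50 is derived from inhibition rates. Cells were U2OS transfected with IL-10R1 plus STAT3-Luc reporter, pretreated 6 h with 0.1–300 nM compound, then stimulated 24 h with IL-10 at 10 ng/mL.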

The test system of data set [2] is IL-2-induced JAK1/JAK3 signal pathway. The data set can be described thus: IL-2-induced proliferation of KHYG-1 cells (JAK1/JAK3 signal). It counts as cell-based, human. The conditions noted are these: Homo sapiens; KHYG-1 cell proliferation, IL-2 10 ng/mL, 72 hours; read-out: Inhibition activity IC50 on IL-2-induced JAK1/JAK3 signal pathway. The gist of the method: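 Controls were wells lacking both compound and cytokine (0%) and compound-free IL-2 wells (100%). C50 was calculated from inhibition rates across doses.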

In data set [3] the test system is EPO-induced JAK2 signal pathway. As to the kind of experiment: EPO-induced proliferation of UT-7 cells (JAK2 signal). The conditions noted are these: Homo sapiens, UT7; UT-7 cell proliferation, EPO 10 ng/mL, 72 hours; read-out: Inhibition activity IC50 on EPO-induced JAK2 signal pathway. The class given is cell-based, human. The gist of the method:
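[…] was derived from inhibition rates across doses, scaled between wells lacking compound and cytokine (0) and EPO without compound (100), using alamarBlue fluorescence at Ex530/Em590. Compound (final 0-10000 nM) and 10 ng/mL EPO were given to UT-7 cells at 15000 per well for 72 h at 37° C.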

Data set [4] deals with INF-α-induced pSTAT5 in human PBMC. The data set can be described thus: INF-α-induced pSTAT5 in human PBMC (FACS, CD3 positive cells). The class given is cell-based. The conditions noted are these: IFN-α 30 ng/ml, read-out: Inhibition activity IC50 on INF-α-induced pSTAT5 in human PBMC. As to the method:
hPBMC (available from Shanghai AoNeng Biotechnology Co., Ltd.) was inoculated in 96-well plate, added with compound of the present invention (at concentrations of 40 nM and 200 nM), incubated for 60 min (compound in concentrations of 2 nM, 10 nM respectively during the incubation); added with 30 ng/ml of stimulating factor IFN-α (BioLegend) together with anti-CD3 antibody (Biolegend) and then continued to be incubated for 30 min. After the incubation, each well was added with 1 mL of fixing solution (BD Biosciences), the obtained mixture was incubated for 10 min followed by centrifugation, added with 400 μL/well of Perm III (BD Biosciences), followed by further incubation at 4° C. for 30 min. The obtained mixture was added with mouse anti-human pSTAT5 antibody (Alexa Fluor® 647 Conjugate), followed by incubation at room temperature for 40 min. Fluorescence intensity of pSTAT5 in CD3 positive cells was detected by FACS.
Inhibition rate at individual compound concentration was calculated with the following formula:
Inhibition rate=(MFI value(IFN-α-stimulated control)−MI value(2/10 nM compound treated group)/MFI value(IFN-α-stimulated control)[…]
wherein: MFI value meant fluorescence intensity value; IFN-α-stimulated control meant control group which was operated similarly to the experimental groups but no compound of the present invention was added.

Data set [5] can be described thus: In-vivo pharmacokinetic test in mice. The conditions noted are these: mouse, po; BALB/c female mice, gavage 10 mg/kg, plasma. As for the experimental part: LC-MS/MS method is used to determine the drug concentration in the plasma of mice at different times after intragastric administration of the compound of the example. Relevant pharmacokinetic parameters are calculated to study the pharmacokinetic behavior of the compound of the present invention in mice, thereby evaluating the pharmacokinetic characteristics thereof.
Test animal was healthy adult BALB/c female mouse (provided by Chengdu Yaokang Biotechnology Co., Ltd.);
Compound administration and sample collection: compound was administered to BALB/c female mice by gavage (10 mg/kg). At 0.25, 0.5, 1, 2, 4, 6, 8, and 24 hours after administration, 60 μL of whole blood of the mouse fundus venous plexus were collected and centrifuged at 4000 rpm for 10 min to provide plasma.
Sample analysis: 10 μL of mouse plasma samples were respectively added with 290 μL of acetonitrile solution containing internal standard to precipitate proteins. After swirling for 10 min and centrifuging at 4000 rpm for 10 min, 200 μL of supernatant was added to 96-well plate, and analyzed by LC-MS/MS at an injection volume of 1 μL.

The target of data set [6] is TYK2 JH2 domain (Homo sapiens (Human), UniProt P29597). As to the kind of experiment: TYK2 JH2 domain FRET tracer assay. The conditions noted are these: FRET 665/615 nm; read-out: Inhibition activity IC50 on TYK2 JH2 domain. It counts as binding. As to the method: Compound of the present invention formulated into different concentrations (series 3 times dilutions, started from 60 μM, 11 concentrations in total) was added to 384-well plate, followed by 5 μL of enzyme (i.e., TYK2 JH2 domain), Tb antibody (Cisbio) and tracer. The mixture was incubated at 25° C. for 60 min and left at 4° C. overnight.
Chain of TYK2 JH2 domain (P29597 589-875): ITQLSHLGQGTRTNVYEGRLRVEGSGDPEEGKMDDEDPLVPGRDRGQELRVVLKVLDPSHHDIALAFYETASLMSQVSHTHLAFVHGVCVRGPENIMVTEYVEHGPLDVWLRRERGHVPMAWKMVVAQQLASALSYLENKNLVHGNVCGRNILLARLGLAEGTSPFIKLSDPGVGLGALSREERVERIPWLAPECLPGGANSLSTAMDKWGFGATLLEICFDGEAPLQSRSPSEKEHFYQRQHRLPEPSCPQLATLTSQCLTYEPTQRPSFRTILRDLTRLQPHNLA

Consider `CCONC(=O)c1cnc(NC(=O)C2CC2)cc1Nc1cc(F)cc(-c2ncn(C3CC3)n2)c1OC` [Example 205], for which the IC50 was 1.79 nM in data set [1] (Homo sapiens, U2OS); over 10000 nM in data set [2]; over 10000 nM in data set [3]; under 2 nM in data set [4] (Homo sapiens, PBMC).

Consider `CCONC(=O)c1cnc(Nc2cc(C)nc(C)n2)cc1Nc1cccc(-c2ncc(F)cn2)c1OC` [Example 208, 6-((2,6-dimethylpyrimidin-4-yl)amino)-N-ethoxy-4-((3-(5-fluoropyrimidin-2-yl)-2-methoxyphenyl)amino)nicotinamide], for which the IC50 is 0.889 nM in data set [1] (Homo sapiens, U2OS); over 10000 nM in data set [2]; over 10000 nM in data set [3]. Besides, the AUC in data set [5] amounted to 34.3 µM·h. Besides, the peak concentration (Cmax) in data set [5] worked out at 16.4 µM.

Consider `CCONC(=O)c1cnc(Nc2cc(C)nc(C)n2)cc1Nc1cc(F)cc(-c2ncc(F)cn2)c1OC` [Example 211], for which the IC50 is 1.98 nM in data set [1] (Homo sapiens, U2OS); over 10000 nM in data set [2]; over 10000 nM in data set [3]; under 2 nM in data set [4] (Homo sapiens, PBMC).

As to `CCONC(=O)c1cnc(Nc2cc(C)nc(C)n2)cc1Nc1cccc(-c2cnc(C)cn2)c1OC` [Example 213], the IC50 in data set [1] (Homo sapiens, U2OS) is 0.146 nM; in data set [2] it was over 10000 nM; in data set [3], over 10000 nM. Besides, in data set [5], the exposure (AUC) stood at 49.3 µM·h. In data set [5], the maximum concentration (Cmax) amounted to 18 µM.

With `CCONC(=O)c1cnc(Nc2cc(C)nc(C)n2)cc1Nc1cc(F)cc(-c2cnc(C)cn2)c1OC` [Example 214], the IC50 is 0.16 nM in data set [1] (Homo sapiens, U2OS); over 10000 nM in data set [2]; over 10000 nM in data set [3]; 0.09 nM in data set [6]. This compound also gave an AUC in data set [5] of 41.9 µM·h. In addition, the highest concentration (Cmax) in data set [5] worked out at 9.21 µM.

Regarding `CCONC(=O)c1cnc(Nc2cc(C)nc(C)n2)cc1Nc1cc(F)cc(-c2ncc(C)cn2)c1OC` [Example 225, 6-((2,6-dimethylpyrimidin-4-yl)amino)-N-ethoxy-4-((5-fluoro-2-methoxy-3-(5-methylpyrimidin-2-yl)phenyl)amino)nicotinamide], the IC50 in data set [1] (Homo sapiens, U2OS) is 0.36 nM; in data set [2], over 10000 nM; in data set [3] it was over 10000 nM; in data set [4] (Homo sapiens, PBMC) it was under 2 nM.

With `CCONC(=O)c1cnc(Nc2cc(C)nc(C)n2)cc1Nc1cccc(-c2cnccn2)c1OC` [Example 248, 6-((2,6-dimethylpyrimidin-4-yl)amino)-N-ethoxy-4-((2-methoxy-3-(pyrazin-2-yl)phenyl)amino)nicotinamide], the IC50 in data set [1] (Homo sapiens) was 1.04 nM; in data set [2], over 10000 nM; in data set [3], over 10000 nM; in data set [4] (Homo sapiens, PBMC) it was under 2 nM.

On to BMS-986165, for which the IC50 worked out at 3.03 nM in data set [1] and 2 nM in data set [4].

Values taken from patent US20240101548A1, “HYDROXAMATE COMPOUND, PREPARATION METHOD THEREFOR AND APPLICATION THEREOF” (SHENZHEN CHIPSCREEN BIOSCIENCES CO., LTD., priority 2020, published 2024).
